The nature of data set [1]: Cardiotoxicity in Sprague-Dawley rat assessed as SBP rate at 50 mg/kg. Format: toxicity, organism-based. The following applies: in vivo.
The nature of data set [2]: Antioxidant activity assessed as DPPH radical scavenging activity at 40 uM/ml incubated for 20 mins by spectrophotometric method relative to control. The format is functional. In general terms: Loss of DPPH colour is used to gauge radical scavenging.

Molecules are shown by their SMILES.

Turning to `CC(=O)N(C1=CC(=O)CCC1)c1ccc(Cl)cc1`, the Activity entry is “Non-Toxic” in data set [1] and 48% in data set [2].
